Laboratory results reported in patent publication US20250136553A1, “ACYLSULFONAMIDE KAT6A INHIBITORS” (Olema Pharmaceuticals, Inc., priority 2023, published 2025).

The molecules below were run against human-KAT6A (MYST domain 507-778 aa) (Homo sapiens (Human), UniProt Q92794) (assay: KAT6A biochemical assay (TR-FRET)). Details: @ 1 μM; reported where IC50 could not be determined; read-out: Percent inhibition at specific concentration (KAT6A).
In short: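 KAT6A MYST domain preincubated with compound 30 min at 25° C, then reacted 60 min at 25° C with 200 nM biotin-H4 peptide and 600 nM acetyl-CoA (final). Europium anti-acetyl-lysine/streptavidin-APC TR-FRET read (Ex 340, Em 615/665 nm); % inhibition from 665/615 ratio, IC50 by sigmoidal fit.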

Chain of human-KAT6A (MYST domain 507-778 aa) (Q92794 507-778): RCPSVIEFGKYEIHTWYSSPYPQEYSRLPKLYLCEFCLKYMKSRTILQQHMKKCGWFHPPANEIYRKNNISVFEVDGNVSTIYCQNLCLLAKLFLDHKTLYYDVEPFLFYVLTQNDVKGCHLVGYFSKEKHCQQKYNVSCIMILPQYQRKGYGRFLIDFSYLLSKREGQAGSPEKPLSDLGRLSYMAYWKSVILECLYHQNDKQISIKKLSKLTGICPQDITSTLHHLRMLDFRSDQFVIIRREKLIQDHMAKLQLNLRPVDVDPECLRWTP

Row | SMILES | inhibition at 1 µM
1 | CN=S(=O)(NC(=O)c1ccc(Cn2cccn2)c(OC)c1)c1c(OC)cccc1OC (stereo not shown) [Compound 292, 4-((1H-pyrazol-1-yl)methyl)-N-((2,6-dimethoxyphenyl)(methylamino)(oxo)-16-sulfaneylidene)-3-methoxybenzamide] | 47%

Same assay, conditions: KAT6A IC50 (nM), TR-FRET; histone H4 peptide 200 nM, acetyl-CoA 600 nM

Row | SMILES | IC50
2 | COc1cc(C(=O)NS(=O)(=O)c2c(OC)cccc2OC)ccc1Cn1cccn1 [Compound 14, 4-((1H-pyrazol-1-yl)methyl)-N-((2,6-dimethoxyphenyl)sulfonyl)-3-methoxybenzamide] | 7 nM

Same assay, conditions: TR-FRET; histone H4 peptide 200 nM, acetyl-CoA 600 nM; read-out: KAT6A IC50

Row | SMILES | IC50
3 | COc1cc(C)cc(OC)c1[S@](=N)(=O)NC(=O)c1ccc(Cn2cccn2)c(OC)n1 [Compound 306a, (R)-5-((1H-pyrazol-1-yl)methyl)-N-(2,6-dimethoxy-4-methylphenylsulfonimidoyl)-6-methoxypicolinamide] | 12 nM
4 | COc1cc(C(=O)N[S@@](=N)(=O)c2c(OC)ccc(C)c2OC)ccc1Cn1cccn1 [Compound 304a, (R)-4-((1H-pyrazol-1-yl)methyl)-N-(2,6-dimethoxy-3-methylphenylsulfonimidoyl)-3-methoxybenzamide] | 18 nM
5 | COc1cccc(OC2CCC2)c1[S@](=N)(=O)NC(=O)c1ccc(Cn2cccn2)c(OC)n1 [Compound 298a, (R)-5-((1H-pyrazol-1-yl)methyl)-N-(2-cyclobutoxy-6-methoxyphenylsulfonimidoyl)-6-methoxypicolinamide] | 23 nM
6 | COc1ccc(C(C)(C)C)cc1S(=O)(=O)NC(=O)c1ccc(Cn2cccn2)cn1 [Compound 201, 5-((1H-pyrazol-1-yl)methyl)-N-((5-(tert-butyl)-2-methoxyphenyl)sulfonyl)picolinamide] | 731 nM
7 | [2H]C([2H])([2H])Oc1cc(OC([2H])([2H])[2H])c(S(=O)(=O)NC(=O)c2ccc(Cn3cccn3)c(OC)n2)c(OC([2H])([2H])[2H])c1 [Compound 270, 5-((1H-pyrazol-1-yl)methyl)-6-methoxy-N-((2,4,6-tris(methoxy-d3)phenyl)sulfonyl)picolinamide] | 6 nM
8 | COc1cc(C(=O)NS(=O)(=O)c2cc(C(C)(C)O)ccc2OC)ccc1Cn1cccn1 [Compound 54, 4-((1H-pyrazol-1-yl)methyl)-N-((5-(2-hydroxypropan-2-yl)-2-methoxyphenyl)sulfonyl)-3-methoxybenzamide] | 3 nM
9 | COc1cc(OC)c(S(=O)(=O)NC(=O)c2ccc(Cn3cccn3)c(OC)n2)c(OC)c1 [Compound 224, 5-((1H-pyrazol-1-yl)methyl)-6-methoxy-N-((2,4,6-trimethoxyphenyl)sulfonyl)picolinamide] | 11 nM
10 | COc1cc(OC)c([S@@](=N)(=O)NC(=O)c2ccc(Cn3cccn3)c(OC)c2)c(OC)c1 [Compound 299b, (S)-4-((1H-pyrazol-1-yl)methyl)-3-methoxy-N-(2,4,6-trimethoxyphenylsulfonimidoyl)benzamide] | 226 nM
11 | COc1cc(C(=O)N[S@](=N)(=O)c2cc(C(C)(C)CO)ccc2OC)ccc1Cn1cccn1 [Compound 291b, (S)-4-((1H-pyrazol-1-yl)methyl)-N-(5-(1-hydroxy-2-methylpropan-2-yl)-2-methoxyphenylsulfonimidoyl)-3-methoxybenzamide] | 9 nM
12 | COc1nc(C(=O)NS(=O)(=O)c2cccc3c2CCC3)ccc1Cn1cccn1 [Compound 233, 5-((1H-pyrazol-1-yl)methyl)-N-((2,3-dihydro-1H-inden-4-yl)sulfonyl)-6-methoxypicolinamide] | 94 nM
13 | COc1nc(C(=O)N[S@](=N)(=O)c2c(F)cccc2F)ccc1Cn1cccn1 [Compound 308b, (S)-5-((1H-pyrazol-1-yl)methyl)-N-(2,6-difluorophenylsulfonimidoyl)-6-methoxypicolinamide] | 49 nM
14 | COc1cc(OC)c(S(=O)(=O)NC(=O)c2ccc(Cn3cccn3)c(OC)c2)cc1Cl [Compound 44, 4-((1H-pyrazol-1-yl)methyl)-N-((5-chloro-2,4-dimethoxyphenyl)sulfonyl)-3-methoxybenzamide] | 9 nM
15 | COc1cc(C(=O)NS(=O)(=O)c2c(OC)cccc2OC)ccc1Cn1cccn1 [Compound 14, 4-((1H-pyrazol-1-yl)methyl)-N-((2,6-dimethoxyphenyl)sulfonyl)-3-methoxybenzamide] | 32 nM
16 | COc1cc(C(=O)N[S@](=N)(=O)c2c(OC)ccc(C)c2OC)ccc1Cn1cccn1 [Compound 304b, (S)-4-((1H-pyrazol-1-yl)methyl)-N-(2,6-dimethoxy-3-methylphenylsulfonimidoyl)-3-methoxybenzamide] | 130 nM
17 | COc1ccc(C)c(OC)c1S(=O)(=O)NC(=O)c1ccc(Cn2cccn2)c(OC)n1 [Compound 222, 5-((1H-pyrazol-1-yl)methyl)-N-((2,6-dimethoxy-3-methylphenyl)sulfonyl)-6-methoxypicolinamide] | 18 nM
18 | COc1nc(C(=O)NS(=O)(=O)c2ccc3c(c2)CCC3)ccc1Cn1cccn1 [Compound 234, 5-((1H-pyrazol-1-yl)methyl)-N-((2,3-dihydro-1H-inden-5-yl)sulfonyl)-6-methoxypicolinamide] | 42 nM
19 | COc1cc(Cl)cc(OC)c1S(=O)(=O)NC(=O)c1ccc(Cn2cccn2)c(OC)n1 [Compound 283, 5-((1H-pyrazol-1-yl)methyl)-N-((4-chloro-2,6-dimethoxyphenyl)sulfonyl)-6-methoxypicolinamide] | 10 nM
20 | COc1cc(C(=O)NS(=O)(=O)c2ccccc2OCc2ccccn2)ccc1Cn1cccn1 [Compound 53, 4-((1H-pyrazol-1-yl)methyl)-3-methoxy-N-((2-(pyridin-2-ylmethoxy)phenyl)sulfonyl)benzamide] | 31 nM
21 | COc1cc(OC)c(S(=N)(=O)NC(=O)c2ccc(Cn3cccn3)c(OC)c2)c(OC)c1 (racemic) [Compound 299, 4-((1H-pyrazol-1-yl)methyl)-3-methoxy-N-(2,4,6-trimethoxyphenylsulfonimidoyl)benzamide] | 25 nM
22 | COc1cc(OC)c(S(=O)(=O)NC(=O)c2ccc(Cn3cccn3)c(OC)c2)cc1Br [Compound 45, N-(5-bromo-2,4-dimethoxy-phenyl)sulfonyl-3-methoxy-4-(pyrazol-1-ylmethyl)benzamide] | 10 nM
23 | COc1cc(C(=O)NS(=O)(=O)c2cc(C(F)(F)F)ccc2OC)ccc1Cn1cccn1 [Compound 32, 4-((1H-pyrazol-1-yl)methyl)-3-methoxy-N-((2-methoxy-5-(trifluoromethyl)phenyl)sulfonyl)benzamide] | 16 nM
24 | CCc1ccc(OC)c(S(=O)(=O)NC(=O)c2ccc(Cn3cccn3)c(OC)n2)c1 [Compound 204, 5-((1H-pyrazol-1-yl)methyl)-N-((5-ethyl-2-methoxyphenyl)sulfonyl)-6-methoxypicolinamide] | 6 nM
25 | COc1cccc(OC)c1S(=O)(=O)NC(=O)c1ccc(Cn2cccn2)c(C)c1 [Compound 34, 4-((1H-pyrazol-1-yl)methyl)-N-((2,6-dimethoxyphenyl)sulfonyl)-3-methylbenzamide] | 36 nM
26 | COc1cccc(OC)c1S(=O)(=O)NC(=O)c1ccc(Cn2cccn2)c(OC)c1F [Compound 69, 4-((1H-pyrazol-1-yl)methyl)-N-((2,6-dimethoxyphenyl)sulfonyl)-2-fluoro-3-methoxybenzamide] | 114 nM
27 | COc1ccc(C(C)(C)CO)cc1S(=O)(=O)NC(=O)c1ccc(Cn2cccn2)c(OC)n1 [Compound 266, 5-((1H-Pyrazol-1-yl)methyl)-N-((5-(1-hydroxy-2-methylpropan-2-yl)-2-methoxyphenyl)sulfonyl)-6-methoxypicolinamide] | 10 nM
28 | COc1cccc(OC)c1[S@@](=N)(=O)NC(=O)c1ccc(Cn2cccn2)c(OC(F)(F)F)c1 [Compound 300b, (S)-4-((1H-pyrazol-1-yl)methyl)-N-(2,6-dimethoxyphenylsulfonimidoyl)-3-(trifluoromethoxy)benzamide] | 18 nM
